Consider 1 compound from publication PMC6435658, “Investigation into the Molecular Mechanisms underlying the Anti-proliferative and Anti-tumorigenesis activities of Diosmetin against HCT-116 Human Colorectal Cancer” (Scientific Reports, 2019).

Values after ≈ are worked out from the molar mass of the structure shown.

One assay deals with NF-κB. The assay is described as follows: Translocation of NF-κB induced by TNF-α. The format is cell-based, human. The note with it: HCT-116 stimulated with TNF-α, vs untreated group. As for the experimental part:
Confocal microscope was used to detect the suppressive effect of Dis on translocation of NF-κB from cytoplasm to nucleus induced by TNF-α (Santa Cruz, CA, USA) using cellomics nucleus factor-κB (NF-κB) activation kit (Thermo Scientific™, Pittsburgh, PA, USA). HCT-116 cells were seeded and treated with Dis at different time points in 24 well-plate covered with cover slide. An amount of 150 ng/ml of TNF-α was used as a stimulator for 24 h. Cells were then fixed and stained according to the manufacturer’s instructions. Translocation of NF-κB was investigated via confocal Leica TCS SP5 II microscope (Leica Microsystems, Mannheim, Germany) and intensity of NF-κB was measured by using LAS X software.

Assay [1] deals with HCT-116 cells. Briefly: Cell cycle analysis by flow cytometry. The settings on record: HCT-116, 24 h, 48 h, 72 h. Format: cell-based, human. Here is the method: Flow cytometry analysis was performed to determine any disruption during the cell cycle of HCT-116 cells in the presence of Dis. HCT-116at density of 2 × 10^6 cells were seeded and treated for 24 h, 48 h and 72 h in a 75 cm^2 flask. Negative control was treated with 0.02% DMSO. After fixation of the cells with 70% ethanol, cells were preserved in −20 °C overnight followed by washing and staining with 500 µl of PI/Rnase dye (BD Biosciences, San Jose, CA, USA) and incubated for 30 min. DNA content analysis was performed using BD FACSCanto II flow cytometer instrument and BD FACS Diva software (BD FACSCanto™II, San Jose, CA, USA). A total of 15,000 events per sample were recorded for analysis. ModFit LT version 3.0 software was used for analyzing the data.
(In general: In flow cytometry, cells or beads pass a laser one at a time.)

Assay [2] concerns HCT-116 cells. The assay is described as follows: Annexin-V-FITC apoptosis assay. The format is cell-based, human. As for the experimental part:
Inductions of early and late stages of apoptosis by Dis were investigated using Annexin-V-FITC assay according to the manufacturer’s instructions (BD Biosciences, San Jose, CA, USA). Briefly, 10^6 HCT-116 cells were seeded in 25 cm^2 flask followed by treatment with Dis for 24 h, 48 h and 72 h. Treated cells were harvested and washed twice with cold PBS and suspended in binding buffer followed by transferred of 10^5 cells to the 6 ml polystyrene round-bottom FACS tubes. Cells were incubated with 5 µl of PI and 5 µl of Annexin-V-FITC and introduced to the FACSCanto™II instrument (BD, San Jose, CA, USA).

For another assay, the system named is Colo205. More on the design: method as in PMID 19424633, PMID 27176768, PMID 26847170, PMID 20183323. The note with it: Colo205, 24 h treatment; ref [10],[13],[15],[47]; cited from earlier work.
Assay [3] concerns HCT-116 cells. Briefly: Human apoptosis protein array (proteome profiler). The format is cell-based. The settings on record: vs control. As for the experimental part: Apoptosis protein expression profiling was performed using human apoptosis array (R&D Systems, Minneapolis, MN, USA) according to the manufacturer’s protocol. In brief, 2 × 10^6 HCT-116 cells were seeded and treated with Dis in 75 cm^2 flask and incubated for 48 h. Cells were harvested and lysed via lysis buffer reagent and was quantified using Pierce BCA protein assay kit (Thermo Scientific™, Pittsburgh, PA, USA). The membrane provided was blocked in blocking solution reagent and treated overnight with cell lysates protein. The membrane was washed and subsequently incubated with detection antibody cocktail and streptavidin horseradish peroxidase-conjugated. Chemiluminescent reagents were added to the membrane and then exposed to X-ray film to detect the protein expression levels in treated cells as compared to untreated cells. Images were quantified via ImageJ software (NIH, USA). The list of investigated proteins is provided as supplementary data (Table S2).

In assay [4] the test system is HCT-116 cells. The assay is described as follows: MTT cytotoxicity assay, HCT-116. Format: cell-based, human. The settings on record: for IC50: Homo sapiens, MTT. Here is the method: Cytotoxicity property of Dis against HCT-116 and CCD-841 cells were measured by MTT assay as described by Mossman[77]. Briefly, cells were treated with different concentration of Dis and 5-Fu (positive control) with serial dilution factor of 2 for 8 concentrations in 96 well-plate for different time points (24 h, 48 h and 72 h). Subsequently at the end of each time point 20 µl of MTT (5 mg/ml, Affymetrix,Cleveland, OH, USA) were added to each well followed by 4 h incubation. The solutions were aspirated after 4 h and 100 µl of DMSO were added to each well. Absorbance for each well was read at 570 nm as measured by using microplate reader (Tecan Infinite multimode, Männedorf, Switzerland). Cytotoxicity (cell death) was measured by using the following formula: Celldeath(%)=sampleOD−controlOD/controlOD100
This assay was performed in triplicates in three independent experiments. The cytotoxicity property of Dis was presented as IC50 value.

The next assay concerns MDA-MB 468. More on the design: method as in PMID 19424633, PMID 27176768, PMID 26847170, PMID 20183323. The settings on record: MDA-MB 468, 24 h treatment; ref [10],[13],[15],[47]; cited from earlier work.
The next assay concerns HCC. More on the design: method as in PMID 19424633, PMID 27176768, PMID 26847170, PMID 20183323. The note with it: 24 h treatment, ref [10],[13],[15],[47]; cited from earlier work.
The subject of another assay is SK-Hep-1. Also noted: method as in PMID 19424633, PMID 27176768, PMID 26847170, PMID 20183323. The note with it: SK-Hep-1, 24 h; ref [10],[13],[15],[47]; cited from earlier work.

As a reminder, the IC50 is the concentration at which inhibition is half-maximal. `COc1ccc(-c2cc(=O)c3c(O)cc(O)cc3o2)cc1O` [Dis, Diosmetin]: the “translocation of NF-ƙB” value in the assay on NF-κB is given as “significantly reduced”. Also, in the assay with HCT-116 cells [1], the cell cycle arrest result is listed as “arrested in G2/M phase”. Further, the Late apoptosis with HCT-116 cells [2] (HCT-116, 24 h) was determined as 18 ± 3.6%; with HCT-116 cells [2] (HCT-116, 48 h), 26.3 ± 3.6%; with HCT-116 cells [2] (HCT-116, 72 h), 53.15 ± 4.35%. For the same compound, in the assay on HCT-116 cells [2] (HCT-116, 72 h of treatment), the “population of cells in early apoptosis” value worked out at 7.7 ± 0%. In addition, the IC50 in the assay on Colo205 is 29 µg/mL (≈ 96.6 µM); in the assay on HCT-116 cells [4] (HCT-116, 24 h), 5.56 ± 0.48 µg/mL (≈ 18.5 µM); in the assay on HCT-116 cells [4] (HCT-116, 48 h), 3.58 ± 0.58 µg/mL (≈ 11.9 µM); with HCT-116 cells [4] (HCT-116, 72 h), 3.41 ± 0.64 µg/mL (≈ 11.4 µM); with MDA-MB 468, 1.35 µg/mL (≈ 4.5 µM); in the assay with HCC, 50 µg/mL (≈ 167 µM). In addition, the IC50 with SK-Hep-1 was 100 µg/mL (≈ 333 µM). In addition, in the assay on HCT-116 cells [3] (HCT-116, 3.58 µg/ml Dis, 48 h), the “Protein expression of caspase 3 cleavage, fold change” value is on record as 2.61. The “Protein expression of pro-caspase 3, fold change” value in the assay with HCT-116 cells [3] (HCT-116, 3.58 µg/ml Dis, 48 h) came to 0.75. Further, the “Hsp27 expression, gene and protein levels” value in the assay on HCT-116 cells [3] (HCT-116, 48 h) is recorded as “significantly decreased”. Further, in the assay with HCT-116 cells [3] (HCT-116, 48 h), the “expression of FADD” value is on record as “significantly increased”. Besides, the “protein expression level of Bax” value with HCT-116 cells [3] (HCT-116, 48 h) is “accelerated”. Besides, the “protein expression level of Cytochrome C” value in the assay with HCT-116 cells [3] (HCT-116, 48 h) is “accelerated”. In addition, the “protein expression of Survivin” value with HCT-116 cells [3] (HCT-116, 48 h) was “significantly decreased”. Moreover, the “Selectivity Index (SI)” value in the assay on HCT-116 cells [4] (IC50 CCD-841 / IC50 HCT-116, 24 h) stood at 42.53; in the assay on HCT-116 cells [4] (IC50 CCD-841 / IC50 HCT-116, 48 h) it was 14.51; in the assay with HCT-116 cells [4] (IC50 CCD-841 / IC50 HCT-116, 72 h), 11.88.
